This is an account of results in patent US8871681B2, “Herbicidal compositions comprising 4-amino-3-chloro-5-fluoro-6-(4-chloro-2-fluoro-3-methoxyphenyl) pyridine-2-carboxylic acid or a derivative thereof and certain sulfonylureas” (Dow AgroSciences LLC, priority 2012, dated 2014).

Assay [1] deals with LEFCH (Leptochloa chinensis, Chinese sprangletop). The assay can be described thus: Postemergence foliar-applied weed control, direct seeded rice, greenhouse (Example I). The settings on record: Dinebra chinensis, post-emergence, 480 h, 20 DAA, read-out: Visual Weed Control (%) Obs. Type of assay: in vivo, Leptochloa chinensis (L.) Nees. An excerpt: (§1) Seeds or nutlets of the desired test plant species were planted in a soil matrix prepared by mixing a loam or sandy loam soil (e.g., 28.6 percent silt, 18.8 percent clay, and 52.6 percent sand, with a pH of about 5.8 and an organic matter content of about 1.8 percent) and calcareous grit in an 80 to 20 ratio. The soil matrix was contained in plastic pots with a volume of 1 quart and a surface area of 83.6 square centimeters (cm^2). When required to ensure good germination and healthy plants, a fungicide treatment and/or other chemical or physical treatment was applied. The plants were grown for 8-22 days in a greenhouse with an approximate 14 h photoperiod which was maintained at about 29° C. during the day and 26° C. during the night. Nutrients (Peters Excel® 15-5-15 5-Ca 2-Mg and iron chelate) were applied in the irrigation solution as needed and water was added on a regular basis. Supplemental lighting was provided with overhead metal halide 1000-Watt lamps as necessary. The plants were employed for testing when they reached the first through fourth true leaf stage.
(§2) Treatments consisted of the acid or esters of 4-amino-3-chloro-5-fluoro-6-(4-chloro-2-fluoro-3-methoxy-phenyl)pyridine-2-carboxylic acid (Compound A), each formulated as an SC, and various herbicidal components alone and in combination. Forms of compound A were applied on an acid equivalent basis.
(§3) Other herbicidal components were applied on an active ingredient basis and included acetolactate synthase (ALS)-inhibiting herbicides (sulfonylurea chemical class) azimsulfuron formulated as Gulliver®, bensulfuron-methyl formulated as Londax® 60DF, cyclosulfamuron (technical material), ethoxysulfuron formulated as Sunrice® 15 WDG, flazasulfuron formulated as Katana®, flucetosulfuron formulated as Sukedachi® 1KG G, foramsulfuron formulated as Option®, imazosulfuron formulated as Brazzos® WG, iodosulfuron-methyl-sodium formulated as Hussar®, metsulfuron-methyl formulated as Lorate®, nicosulfuron formulated as Accent®, orthosulfamuron formulated as Strada® WG, primisulfuron-methyl (technical material), propyrisulfuron formulated as Zeta One®, rimsulfuron formulated as Matrix® WG, sulfometuron-methyl formulated as Oust®, and trifloxysulfuron-sodium formulated as Monument® 75WG.
(§4) Treatment requirements were calculated based upon the rates being tested, the concentration of active ingredient or acid equivalent in the formulation, and a 12 mL application volume at a rate of 187 L/ha.
(§5) For treatments comprised of formulated compounds, measured amounts of compounds were placed individually in 25 mL glass vials and diluted in a volume of 1.25% (v/v) Agri-Dex® crop oil concentrated to obtain 12× stock solutions. […] Application solutions were prepared by adding an appropriate amount of each stock solution (e.g., 1 mL) and diluted to the appropriate final concentrations with the addition of 10 mL of an aqueous mixture of 1.25% (v/v) crop oil concentrate so that the final spray solutions contained 1.25+/−0.05% (v/v) Agrcrop oil concentrate.
(§6) For treatments comprised of formulated and technical compounds, weighed amounts of the technical materials were placed individually in 25 mL glass vials and dissolved in a volume of 97:3 v/v acetone/DMSO to obtain 12× stock solutions, and measured amounts of the formulated compounds were placed individually in 25 mL glass vials and diluted in a volume of 1.25% (v/v) crop oil concentrate to obtain 12× stock solutions. […] Application solutions were prepared by adding an appropriate amount of each stock solution (e.g., 1 mL) and diluted to the appropriate final concentrations with the addition of an appropriate amount of an aqueous mixture of 1.5% (v/v) crop oil concentrate so that the final spray solutions contained 1.25% (v/v) crop oil concentrate. […]

In assay [2] the test system is CYPIR (Cyperus iria, rice flatsedge). The assay is described as above. Type of assay: in vivo, Cyperus iria L. Conditions: 20 DAA.
Text: as §1, §2, §3, §4, §5, §6

The test system of assay [3] is DIGSA (Digitaria sanguinalis, large crabgrass). The assay is described as above. Type of assay: in vivo, Digitaria sanguinalis (L.) Scop. The settings on record: 20 DAA.
Text: as §1, §2, §3, §4, §5, §6

The subject of assay [4] is CYPES (Cyperus esculentus, yellow nutsedge). The description is as above. It is filed as in vivo, Cyperus esculentus L. The settings on record: 20 DAA.
Text: as §1, §2, §3, §4, §5, §6

Assay [5] concerns ECHOR (Echinochloa oryzoides, early watergrass). Nature of the assay: In-water applied weed control, transplanted paddy rice, greenhouse (Example II). Type of assay: in vivo, Echinochloa oryzoides (Ard.) Fritsch. The procedure:
(§7) Weed seeds or nutlets of the desired test plant species were planted in puddled soil (mud) prepared by mixing a shredded, non-sterilized mineral soil (50.5 percent silt, 25.5 percent clay, and 24 percent sand, with a pH of about 7.6 and an organic matter content of about 2.9 percent) and water at a 1:1 volumetric ratio. The prepared mud was dispensed in 365 mL aliquots into 16-ounce (oz.) non-perforated plastic pots with a surface area of 86.59 square centimeters (cm^2) leaving a headspace of 3 centimeters (cm) in each pot. Rice seeds were planted in Sun Gro MetroMix® 306 planting mixture, which typically has a pH of 6.0 to 6.8 and an organic matter content of about 30 percent, in plastic plug trays. Seedlings at the second or third leaf stage of growth were transplanted into 860 mL of mud contained in 32-oz. non-perforated plastic pots with a surface area of 86.59 cm^2 4 days prior to herbicide application. The paddy was created by filling the headspace of the pots with 2.5 to 3 cm of water. When required to ensure good germination and healthy plants, a fungicide treatment and/or other chemical or physical treatment was applied. The plants were grown for 4-22 days in a greenhouse with an approximate 14 h photoperiod which was maintained at about 29′C during the day and 26° C. during the night. Nutrients were added as Osmocote® (19:6:12, N:P:K+minor nutrients) at 2 g per 16-oz. pot and 4 g per 32-oz. pot. Water was added on a regular basis to maintain the paddy flood, and supplemental lighting was provided with overhead metal halide 1000-Watt lamps as necessary. The plants were employed for testing when they reached the first through fourth true leaf stage.
(§8) Treatments consisted of the acid or esters of 4-amino-3-chloro-5-fluoro-6-(4-chloro-2-fluoro-3-methoxy-phenyl)pyridine-2-carboxylic acid (compound A) each formulated as an SC and various herbicidal components alone and in combination. Forms of compound A were applied on an acid equivalent basis.
(§9) Other herbicidal components were applied on an active ingredient basis and included acetolactate synthase (ALS)-inhibiting herbicides (sulfonylurea chemical class), azimsulfuron formulated as Gulliver®, bensulfuron-methyl formulated as Londax® 60DF, cyclosulfamuron (technical grade materail), ethoxysulfuron formulated as Sunrice® 15 WDG, flucetosulfuron formulated as Sukedachi® 1KG G, imazosulfuron formulated as Brazzos®, metsulfuron-methyl formulated as Lorate®, nicosulfuron formulated as Accent®, orthosulfamuron formulated as Strada® WG, propyrisulfuron formulated as Zeta One®, and rimsulfuron formulated as Matrix® WG.
(§10) Treatment requirements for each compound or herbicidal component were calculated based upon the rates being tested, the concentration of active ingredient or acid equivalent in the formulation, an application volume of 2 mL per component per pot, and an application area of 86.59 cm^2 per pot.
(§11) For formulated compounds, a measured amount was placed in an individual 100 or 200 mL glass vial and was dissolved in a volume of 1.25% (v/v) Agri-Dex® crop oil concentrate to obtain application solutions.
(§12) For technical grade compounds, a weighed amount was placed in an individual 100 to 200 mL glass vial and was dissolved in a volume of acetone to obtain concentrated stock solutions. […] The concentrated stock solutions obtained were diluted with an equivalent volume of an aqueous mixture containing 2.5% (v/v) crop oil concentrate so that the final application solutions contained 1.25% (v/v) crop oil concentrate.
(§13) Applications were made by injecting with a pipetter appropriate amounts of the application solutions, individually and sequentially, into the aqueous layer of the paddy. Control plants were treated in the same manner with the solvent blank. Applications were made so that all treated plant material received the same concentrations of acetone and crop oil concentrate. […]

Assay [6] relates to LEFCH (Leptochloa chinensis, Chinese sprangletop). Described as above. It is filed as in vivo, Leptochloa chinensis (L.) Nees. Conditions: Table 43, 17.5 gai/ha alone. The protocol: as §7, §8, §9, §10, §11, §12, §13
In assay [7] the test system is CYPRO (Cyperus rotundus, purple nutsedge). The assay is described as above. Type of assay: in vivo, Cyperus rotundus L. The protocol:
as §7, §8, §9, §10, §11, §12, §13

Assay [8] relates to BRAPP (Brachiaria platyphylla, broadleaf signalgrass). The assay can be described thus: Postemergence foliar-applied weed control, direct seeded rice, greenhouse (Example I). Conditions: Urochloa platyphylla, post-emergence, 480 h, 20 DAA, read-out: Visual Weed Control (%) Obs. It is filed as in vivo, Brachiaria platyphylla (Griseb.) Nash.
Text: as §1, §2, §3, §4, §5, §6

Assay [9] deals with SCPMA (Bolboschoenus maritimus or Schoenoplectus maritimus, sea clubrush). The assay can be described thus: In-water applied weed control, transplanted paddy rice, greenhouse (Example II). It is filed as in vivo, Bolboschoenus maritimus (L.) Palla. The protocol:
as §7, §8, §9, §10, §11, §12, §13

Assay [10] has as its system CIRAR (Cirsium arvense, Canada thistle). The assay can be described thus: Post-emergence foliar-applied weed control in cereal crops, greenhouse (Example III). Conditions: Cirsium arvense, post-emergence; Table 58 (cereal); foliar-applied; after 20-22 days; 3.75 gai/ha alone; read-out: Weed Control CIRAR Obs. It is filed as in vivo, Cirsium arvense (L.) Scop. The protocol: Seeds of the desired test plant species were planted in Sun Gro MetroMix® 306 planting mixture, which typically has a pH of 6.0 to 6.8 and an organic matter content of about 30 percent, in plastic pots with a surface area of 103.2 square centimeters (cm^2). When required to ensure good germination and healthy plants, a fungicide treatment and/or other chemical or physical treatment was applied. The plants were grown for 7-36 days in a greenhouse with an approximate 14 hour photoperiod which was maintained at about 18° C. during the day and 17° C. during the night. Nutrients and water were added on a regular basis and supplemental lighting was provided with overhead metal halide 1000-Watt lamps as necessary. The plants were employed for testing when they reached the second or third true leaf stage.
Treatments consisted of the benzyl ester of 4-amino-3-chloro-5-fluoro-6-(4-chloro-2-fluoro-3-methoxy-phenyl)pyridine-2-carboxylic acid (Compound A), formulated as an SC (suspension concentrate), and a second cereal herbicide alone and in combination.
Measured aliquot of benzyl ester of 4-amino-3-chloro-5-fluoro-6-(4-chloro-2-fluoro-3-methoxy-phenyl)pyridine-2-carboxylic acid (Compound A) was placed in 25 milliliter (mL) glass vials and diluted in a volume of 1.25% (v/v) Agri-dex crop oil concentrated to obtain stock solutions. Compound requirements are based upon a 12 mL application volume at a rate of 187 liters per hectare (L/ha). Spray solutions of the second cereal herbicide and experimental compound mixtures were prepared by adding the stock solutions to the appropriate amount of dilution solution to form 12 mL spray solution with active ingredients in two- and three-way combinations. Formulated compounds were applied to the plant material with an overhead Mandel track sprayer equipped with an 8002E nozzle calibrated to deliver 187 L/ha over an application area of 0.503 square meters (m^2) at a spray height of 18 inches (46 cm) above average plant canopy. Control plants were sprayed in the same manner with the solvent blank.
The treated plants and control plants were placed in a greenhouse as described above and watered by sub-irrigation to prevent wash-off of the test compounds. After 20-22 days, the condition of the test plants as compared with that of the control plants was determined visually and scored on a scale of 0 to 100 percent where 0 corresponds to no injury and 100 corresponds to complete kill.
Colby's equation was used to determine the herbicidal effects expected from the mixtures (Colby, S. R. 1967. Calculation of the synergistic and antagonistic response of herbicide combinations. Weeds 15:20-22.).
The following equation was used to calculate the expected activity of mixtures containing two active ingredients, A and B: Expected=A+B−(A×B/100)

`COc1cc(OC)nc(NC(=O)NS(=O)(=O)c2ncccc2C(=O)N(C)C)n1` [Nicosulfuron, 2-[[[[(4,6-dimethoxy-2-pyrimidinyl)amino]carbonyl]amino]sulfonyl]-N,N-dimethyl-3-pyridinecarboxamide, reference compound]: the pest or weed control at 35 g/ha in assay [1] (35 gai/ha) is 75%. Besides, the “Visual Weed Control (%) Obs” value is recorded as 80% in assay [2] (8.75 gai/ha); 30% in assay [3] (8.75 gai/ha); 55% in assay [3] (17.5 gai/ha); 10% in [4] (8.75 gai/ha); 60% in assay [4] (17.5 gai/ha); 70% in [4] (35 gai/ha). In addition, the “Visual Weed Control (%) - 20 DAA ECHOR Obs” value was found to be 0% in [5] (Table 43, 17.5 gai/ha alone); 0% in assay [5] (Table 44, 17.5 gai/ha alone); 50% in assay [5] (Table 44, 35 gai/ha alone). For the same molecule, the “Visual Weed Control (%) - 20 DAA LEFCH Obs” value in assay [6] was determined as 60%. The “Visual Weed Control (%) - 20 DAA CYPRO Obs” value in assay [7] (Table 43, 17.5 gai/ha alone) is on record as 30%; in assay [7] (Table 43, 35 gai/ha alone), 70%.

Consider `COc1cc(OC)nc(NC(=O)NS(=O)(=O)Nc2ccccc2C(=O)N(C)C)n1` [Orthosulfamuron, 2-[[[[[(4,6-dimethoxy-2-pyrimidinyl)amino]carbonyl]amino]sulfonyl]amino]-N,N-dimethylbenzamide], for which the pest or weed control at 7.5 g/ha in assay [8] (7.5 gai/ha) and in assay [1] (7.5 gai/ha) was 0% each time. In addition, the pest or weed control at 15 g/ha in assay [8] (15 gai/ha) worked out at 30%; in assay [1] (15 gai/ha) it was 0%. Besides, the “Visual Weed Control (%) Obs” value in [2] (7.5 gai/ha) was found to be 50%; in assay [2] (15 gai/ha) it was 75%; in assay [2] (30 gai/ha), 65%; in [4] (7.5 gai/ha) it was 0%; in assay [4] (15 gai/ha) it was 30%. Further, the “Visual Weed Control (%) - 21 DAA ECHOR Obs” value in assay [5] (Table 46, 15 gai/ha alone) is listed as 10%. The “Visual Weed Control (%) - 20 DAA SCPMA Obs” value worked out at 85% in assay [9] (Table 45, 60 gai/ha alone) and 85% in assay [9] (Table 46, 60 gai/ha alone).

Consider `COC(=O)c1sccc1S(=O)(=O)NC(=O)Nc1nc(C)nc(OC)n1` [Thifensulfuron-methyl], for which the pest or weed control at 3.75 g/ha in [10] was found to be 35%.
